{"source": "patent US20070299098A1", "about": "“Therapeutic Agent for Neuropathic Pain” (Japan Science and Technology Agency, priority 2004, published 2007)", "key": {"[1]": {"system": "hyperalgesia model induced by complete ligation of the L5/L6 spinal nerves", "assay": "Mechanical stimulation test (Dynamic Plantar Aesthesiometer), left plantar pain threshold in hyperalgesia model", "assay_type": "in vivo, rats", "conditions": "for maximum pain threshold following administration (mechanical stimulation): measured 20, 40, 60 min after administration, male rats; for change of pain threshold versus saline control, in words (mechanical stimulation): intraperitoneal, effective doses, Dunnett's multiple comparison test", "method": "(§1) Use was made of a hyperalgesia model induced by complete ligation of the L5/L6 spinal nerves in five- to seven-week-old male rats as the experimental animals.\n(§2) Mechanical stimulation tests were carried out using the Ugo Basile Model 37400 Dynamic Plantar Aesthesiometer, and thermal stimulation tests were carried out using a plantar thermal stimulation tester (Plantar Test 7370, Ugo Basile). The pain thresholds of the feet on each model animal were measured, and the animals were divided into groups having uniform pain thresholds as measured prior to administration on each day of the experiment. In mechanical stimulation, animals for which the model animal foot pain threshold was 8.0 g or more were excluded from the tests. In thermal stimulation, animals for which the pain threshold for the model foot was 10 seconds or more were excluded from the tests.\n(§3) The required amount of the test substance was weighed out and dissolved in physiological saline as the medium. A 2 mg/ml solution was prepared as the highest concentration mixture in the low dosage study, and a 24 mg/ml solution was prepared as the highest concentration mixture in the high dosage study. Solutions at the various concentrations were all prepared at the time of use by suitably diluting these highest concentration mixtures.\nAlthough the object here is to ascertain the direct effect of the test substance on the spinal cord, because the substance has been confirmed to pass through the blood-brain barrier, intraperitoneal administration, which is a simple method of administration, was employed. Using the syringe barrel and needle, a volume of 5 ml/kg was administrated intraperitoneally.\nGroups of five male rats (333.7 to 414.2 g) in which the hyperalgesia model had been induced were used.\nGroups of five male rats (372.0 to 459.5 g) in which the hyperalgesia model had been induced were used.\nGroups of five male rats (295.6 to 356.6 g) in which the hyperalgesia model had been induced were used. […]"}, "[2]": {"system": "hyperalgesia model induced by complete ligation of the L5/L6 spinal nerves", "assay": "Thermal stimulation test (plantar thermal stimulation tester), left plantar pain threshold in hyperalgesia model", "assay_type": "in vivo, rats", "conditions": "for maximum pain threshold following administration (thermal stimulation): thermal stimulation intensity 35, measured 20, 40, 60 min after administration, male rats; for change of pain threshold versus saline control, in words (thermal stimulation): intraperitoneal, effective doses", "method": "as §1, §2, §3\nUsing the syringe barrel and needle, a volume of 5 ml/kg was administrated intraperitoneally.\nGroups of five male rats (356.7 to 444.0 g) in which the hyperalgesia model had been induced were used.\nGroups of five male rats (400.3 to 499.9 g) in which the hyperalgesia model had been induced were used.\nGroups of five male rats (324.8 to 399.0 g) in which the hyperalgesia model had been induced were used.\nGroups of five male rats (307.0 to 393.1 g) in which the hyperalgesia model had been induced were used. A plantar thermal stimulation tester set to a thermal stimulation intensity of 35 was used to measure the left plantar pain threshold before naloxonazine administration, and 20 minutes, 40 minutes and 60 minutes after administration.\nGroups of five male rats (365.3 to 437.2 g) in which the hyperalgesia model had been induced were used. A plantar thermal stimulation tester set to a thermal stimulation intensity of 35 was used to measure the left plantar pain threshold before naltrindole administration, and 20 minutes, 40 minutes and 60 minutes after administration."}, "[3]": {"conditions": "high dose study, 30-120 mg/kg intraperitoneal"}}, "data": [{"smiles": "O=C1CC[C@@]2(O)[C@H]3Cc4ccc(O)c5c4[C@@]2(CCN3CC2CC2)[C@H]1O5", "note": "[naltrexone]", "values": [{"measurement": "maximum pain threshold following administration (mechanical stimulation)", "setting": "[1]; 0.3 mg/kg intraperitoneal", "value": 5.1, "unit": "g"}, {"measurement": "maximum pain threshold following administration (mechanical stimulation)", "setting": "[1]; 3 mg/kg intraperitoneal", "value": 6.7, "unit": "g"}, {"measurement": "maximum pain threshold following administration (mechanical stimulation)", "setting": "[1]; 30 mg/kg intraperitoneal", "value": 10.1, "unit": "g"}, {"measurement": "change of pain threshold versus saline control, in words (mechanical stimulation)", "setting": "[1]", "value": "rose significantly with the administration of 30 mg/kg"}, {"measurement": "maximum pain threshold following administration (thermal stimulation)", "setting": "[2]; 0.3 mg/kg intraperitoneal", "value": 7.7, "unit": "s"}, {"measurement": "change of pain threshold versus saline control, in words (thermal stimulation)", "setting": "[2]", "value": "rose significantly with the administration of 3 and 30 mg/kg"}]}, {"smiles": "Oc1ccc2c3c1O[C@H]1c4[nH]c5ccccc5c4C[C@@]4(O)[C@@H](C2)N(CC2CC2)CC[C@]314", "note": "[naltrindole]", "values": [{"measurement": "maximum pain threshold following administration (mechanical stimulation)", "setting": "[1]; 0.3 mg/kg intraperitoneal", "value": 5.8, "unit": "g"}, {"measurement": "maximum pain threshold following administration (mechanical stimulation)", "setting": "[1]; 3 mg/kg intraperitoneal", "value": 9.4, "unit": "g"}, {"measurement": "maximum pain threshold following administration (mechanical stimulation)", "setting": "[1]; 30 mg/kg intraperitoneal", "value": 14.1, "unit": "g"}, {"measurement": "change of pain threshold versus saline control, in words (mechanical stimulation)", "setting": "[1]", "value": "rose significantly with the administration of 3 and 30 mg/kg"}, {"measurement": "maximum pain threshold following administration (thermal stimulation)", "setting": "[2]; 0.3 mg/kg intraperitoneal", "value": 7.0, "unit": "s"}, {"measurement": "maximum pain threshold following administration (thermal stimulation)", "setting": "[2]; 3 mg/kg intraperitoneal", "value": 9.2, "unit": "s"}, {"measurement": "maximum pain threshold following administration (thermal stimulation)", "setting": "[2]; 30 mg/kg intraperitoneal", "value": 9.2, "unit": "s"}, {"measurement": "change of pain threshold versus saline control, in words (thermal stimulation)", "setting": "[2]", "value": "rose significantly with the administration of 3 and 30 mg/kg"}]}, {"smiles": "C=CCN1CC[C@]23c4c5ccc(O)c4O[C@H]2/C(=N/N=C2\\CC[C@@]4(O)[C@H]6Cc7ccc(O)c8c7[C@@]4(CCN6CC=C)[C@H]2O8)CC[C@@]3(O)[C@H]1C5", "note": "[naloxonazine]", "values": [{"measurement": "maximum pain threshold following administration (mechanical stimulation)", "setting": "[1]; 0.3 mg/kg intraperitoneal", "value": 4.9, "unit": "g"}, {"measurement": "maximum pain threshold following administration (mechanical stimulation)", "setting": "[1]; 3 mg/kg intraperitoneal", "value": 8.6, "unit": "g"}, {"measurement": "maximum pain threshold following administration (mechanical stimulation)", "setting": "[1]; 30 mg/kg intraperitoneal", "value": 14.5, "unit": "g"}, {"measurement": "change of pain threshold versus saline control, in words (mechanical stimulation)", "setting": "[1]", "value": "rose significantly with the administration of 3 and 30 mg/kg"}, {"measurement": "maximum pain threshold following administration (thermal stimulation)", "setting": "[2]; 0.3 mg/kg intraperitoneal", "value": 6.9, "unit": "s"}, {"measurement": "maximum pain threshold following administration (thermal stimulation)", "setting": "[2]; 3 mg/kg intraperitoneal", "value": 7.9, "unit": "s"}, {"measurement": "maximum pain threshold following administration (thermal stimulation)", "setting": "[2]; 30 mg/kg intraperitoneal", "value": 12.3, "unit": "s"}, {"measurement": "change of pain threshold versus saline control, in words (thermal stimulation)", "setting": "[2]", "value": "rose significantly with the administration of 30 mg/kg"}]}, {"smiles": "C=CCN1CC[C@]23c4c5ccc(O)c4O[C@H]2C(=O)CC[C@@]3(O)[C@H]1C5", "note": "[naloxone]", "values": [{"measurement": "maximum pain threshold following administration (mechanical stimulation)", "setting": "[1]; 0.1 mg/kg intraperitoneal", "value": 5.8, "unit": "g"}, {"measurement": "maximum pain threshold following administration (mechanical stimulation)", "setting": "[1]; 1 mg/kg intraperitoneal", "value": 7.7, "unit": "g"}, {"measurement": "maximum pain threshold following administration (mechanical stimulation)", "setting": "[1]; 10 mg/kg intraperitoneal", "value": 9.5, "unit": "g"}, {"measurement": "maximum pain threshold following administration (mechanical stimulation)", "setting": "[1]; 30 mg/kg intraperitoneal", "value": 10.4, "unit": "g"}, {"measurement": "maximum pain threshold following administration (mechanical stimulation)", "setting": "[1]; 60 mg/kg intraperitoneal", "value": 10.6, "unit": "g"}, {"measurement": "maximum pain threshold following administration (mechanical stimulation)", "setting": "[1]; 120 mg/kg intraperitoneal", "value": 10.3, "unit": "g"}, {"measurement": "dose at which the analgesic effect reached its peak (mechanical stimulation)", "setting": "[1]; [3]", "value": 60, "unit": "mg/kg"}, {"measurement": "change of pain threshold versus saline control, in words (mechanical stimulation)", "setting": "[1]", "value": "rose significantly with the administration of 1 mg and 10 mg"}, {"measurement": "maximum pain threshold following administration (thermal stimulation)", "setting": "[2]; 0.1 mg/kg intraperitoneal", "value": 7.2, "unit": "s"}, {"measurement": "maximum pain threshold following administration (thermal stimulation)", "setting": "[2]; 1 mg/kg intraperitoneal", "value": 9.2, "unit": "s"}, {"measurement": "maximum pain threshold following administration (thermal stimulation)", "setting": "[2]; 120 mg/kg intraperitoneal", "value": 23.8, "unit": "s"}, {"measurement": "dose at which the analgesic effect reached its peak (thermal stimulation)", "setting": "[2]; [3]", "value": 30, "unit": "mg/kg"}, {"measurement": "change of pain threshold versus saline control, in words (thermal stimulation)", "setting": "[2]", "value": "rose significantly with the administration of 10 mg"}]}]}
